Entries after “also recorded” stand apart in the source; their conditions may differ.
What was measured:
EGFR = EGFR (Homo sapiens, UniProt P00533); experiment: In vitro kinase assay, EGFR; format: biochemical; details: for IC50: in vitro kinase assay, mean values; for inhibition at 1 µM: mean ± S.D., read-out: % inhibition at 1 μM, EGFR(h)
Protocol: All kinase assays were carried out using KinaseProfiler^TM and IC50 Profiler^TM (Millipore UK Ltd., Dundee, UK. Now Eurofins Scientific, Dundee, UK). All IC50 data were presented as the mean values.

VEGFR-2 = biological target: T1, VEGFR-2 (Homo sapiens, UniProt P35968); experiment: In vitro kinase assay, VEGFR-2; format: biochemical; details: for IC50: in vitro kinase assay; for inhibition at 1 µM: mean ± S.D., read-out: % inhibition at 1 μM, VEGFR-2 (h)
T1 construct: purchased Millipore UK Ltd., Dundee, UK (now Eurofins Scientific); KinaseProfiler / IC50 Profiler service
Protocol: (§1) All kinase assays were carried out using KinaseProfiler^TM and IC50 Profiler^TM (Millipore UK Ltd., Dundee, UK. Now Eurofins Scientific, Dundee, UK). All IC50 data were presented as the mean values. The Curves obtained to determine IC50 values were shown in Supporting Information (S1 Fig).

PDGFRα = biological target: T2, PDGFRα (Homo sapiens, UniProt P16234); experiment: In vitro kinase assay, PDGFRα; format: biochemical; details: 1 μM, mean ± S.D.; read-out: % inhibition at 1 μM, PDGFRα (h)
T2 construct: purchased Millipore UK Ltd., Dundee, UK (now Eurofins Scientific); KinaseProfiler / IC50 Profiler service
Protocol: as §1

VEGFR-3 = biological target: T3, VEGFR-3 (Homo sapiens, UniProt P35916); experiment: In vitro kinase assay, VEGFR-3; format: biochemical; details: 1 μM, mean ± S.D.; read-out: % inhibition at 1 μM, VEGFR-3 (h)
T3 construct: purchased Millipore UK Ltd., Dundee, UK (now Eurofins Scientific); KinaseProfiler / IC50 Profiler service
Protocol: as §1

PDGFRβ = biological target: T4, PDGFRβ (Homo sapiens, UniProt P09619); experiment: In vitro kinase assay, PDGFRβ; format: biochemical; details: 1 μM, mean ± S.D.; read-out: % inhibition at 1 μM, PDGFRβ (h)
T4 construct: purchased Millipore UK Ltd., Dundee, UK (now Eurofins Scientific); KinaseProfiler / IC50 Profiler service
Protocol: as §1

cKit = biological target: T5, cKit (Homo sapiens, UniProt P10721); experiment: In vitro kinase assay, cKit; format: biochemical; details: 1 μM, mean ± S.D.; read-out: % inhibition at 1 μM, cKit(h)
T5 construct: purchased Millipore UK Ltd., Dundee, UK (now Eurofins Scientific); KinaseProfiler / IC50 Profiler service
Protocol: as §1

FGFR3 = biological target: T6, FGFR3 (Homo sapiens, UniProt P22607); experiment: In vitro kinase assay, FGFR3; format: biochemical; details: 1 μM, mean ± S.D.; read-out: % inhibition at 1 μM, FGFR3 (h)
T6 construct: purchased Millipore UK Ltd., Dundee, UK (now Eurofins Scientific); KinaseProfiler / IC50 Profiler service
Protocol: as §1

EGFR (L858R) = biological target: T7, EGFR (L858R) (Homo sapiens, UniProt P00533, L858R); experiment: In vitro kinase assay, EGFR (L858R); format: biochemical; details: 1 μM, mean ± S.D.; read-out: % inhibition at 1 μM, EGFR(L858R)(h)
T7 construct: purchased Millipore UK Ltd., Dundee, UK (now Eurofins Scientific); KinaseProfiler / IC50 Profiler service
Protocol: as §1

FGFR1 = biological target: T8, FGFR1 (Homo sapiens, UniProt P11362); experiment: In vitro kinase assay, FGFR1; format: biochemical; details: 1 μM, mean ± S.D.; read-out: % inhibition at 1 μM, FGFR1 (h)
T8 construct: purchased Millipore UK Ltd., Dundee, UK (now Eurofins Scientific); KinaseProfiler / IC50 Profiler service
Protocol: as §1

VEGFR-1 = biological target: T9, VEGFR-1 (Homo sapiens, UniProt P17948); experiment: In vitro kinase assay, VEGFR-1; format: biochemical; details: 1 μM, mean ± S.D.; read-out: % inhibition at 1 μM, VEGFR-1 (h)
T9 construct: purchased Millipore UK Ltd., Dundee, UK (now Eurofins Scientific); KinaseProfiler / IC50 Profiler service
Protocol: as §1

HUVECs [1] = experiment: HUVEC viability assay (cytotoxicity); format: cell-based, human; details: 24 hours
Protocol: HCC827 cells were purchased from the American Type Culture Collection (ATCC, Manassas, VA, USA). Cells were grown in RPMI 1640 (Welgene Inc., Daegu, Republic of Korea) supplemented with 10% fetal bovine serum (FBS) (Welgene Inc.) and 1% penicillin-streptomycin (Gibco®, Life Technologies, Carlsbad, CA, USA) in a humidified 5% CO2 atmosphere at 37°C. Human umbilical vein endothelial cells (HUVECs, ScienCell Research Laboratories, Carlsbad, CA, USA) were cultured in endothelial growth medium-2 (EGM-2; Lonza, Walkersville, MD, USA) from passages 3 to 6.
For the HUVEC viability assay, HUVECs were treated with phosphate-buffered saline (PBS) or the indicated concentrations of VEGF inhibitors in EGM-2 medium for 24 hours. After the cells were washed with PBS, they were counted using an inverted light microscope (Nikon Eclipse Ti-U; Nikon Corp., Tokyo, Japan) in 5 random fields from each well.

HUVECs [2] = experiment: VEGF-induced tube formation assay; format: cell-based, human; details: VEGF 50 ng/mL, compound 1 μg/mL
Protocol: For analyzing of the antagonistic response to VEGF, tube formation, scratch wound migration, and cell proliferation assays were performed after the exposure of HUVECs to 50 ng/mL VEGF-A (R&D Systems, Minneapolis, MN), which induced a significant angiogenic response. For the cell proliferation assays, cells were incubated overnight in endothelial basal media (EBM; Lonza, Walkersville, MD, USA) containing 0.5% FBS or supplemented with VEGF-A and/or VEGF inhibitors. The cells were washed with PBS and counted in 4 random microscope fields. The tube formation assay was performed by seeding cells on Matrigel-coated plates (BD Bioscience, Bedford, MA, USA) and incubating in EBM containing 0.5% FBS or supplemented with VEGF-A and/or VEGF inhibitors. After overnight incubation, tubule networks were quantified by measuring the tubule length in 4 random microscope fields. For the analysis of scratch wound migration, confluent cell monolayers grown on 6-well plates were scratched using a micropipette tip. […] Cell migration was observed by optical microscopy and quantified by measuring the number of cells that had migrated from the wound edges.
In (A) and (B), the number of cells was expressed as the fold change with respect to the number of cells seeded at day 0. […]

HCC827 cells = experiment: HCC827 cell viability assay; format: cell-based; details: Homo sapiens, 72 h, read-out: HCC827 IC50 (anti-proliferative activity)
Protocol: HCC827 cells were purchased from the American Type Culture Collection (ATCC, Manassas, VA, USA). […] Human umbilical vein endothelial cells (HUVECs, ScienCell Research Laboratories, Carlsbad, CA, USA) were cultured in endothelial growth medium-2 (EGM-2; Lonza, Walkersville, MD, USA) from passages 3 to 6.
After a 24-hour incubation, the cells were treated with a series of test compound dilutions for 72 hours. Cell viability was assessed using EZ-Cytox (Daeil Lab Service, Seoul, South Korea) according to the manufacturer’s instructions.
Cells were incubated for 72 h with a range of concentrations of MKP101, and cell viability was measured using the WST-1 assay. […] Western blot analysis using antibodies to phosphorylated and total EGFR from a representative experiment is shown. Cells were incubated for 3 h at the indicated concentration. (C) Graph showing the relative intensities of the total and phosphorylated EGFR as determined by band densitometry. IC50, half-maximal inhibitory concentration.

T2 sequence (P16234 24-1089): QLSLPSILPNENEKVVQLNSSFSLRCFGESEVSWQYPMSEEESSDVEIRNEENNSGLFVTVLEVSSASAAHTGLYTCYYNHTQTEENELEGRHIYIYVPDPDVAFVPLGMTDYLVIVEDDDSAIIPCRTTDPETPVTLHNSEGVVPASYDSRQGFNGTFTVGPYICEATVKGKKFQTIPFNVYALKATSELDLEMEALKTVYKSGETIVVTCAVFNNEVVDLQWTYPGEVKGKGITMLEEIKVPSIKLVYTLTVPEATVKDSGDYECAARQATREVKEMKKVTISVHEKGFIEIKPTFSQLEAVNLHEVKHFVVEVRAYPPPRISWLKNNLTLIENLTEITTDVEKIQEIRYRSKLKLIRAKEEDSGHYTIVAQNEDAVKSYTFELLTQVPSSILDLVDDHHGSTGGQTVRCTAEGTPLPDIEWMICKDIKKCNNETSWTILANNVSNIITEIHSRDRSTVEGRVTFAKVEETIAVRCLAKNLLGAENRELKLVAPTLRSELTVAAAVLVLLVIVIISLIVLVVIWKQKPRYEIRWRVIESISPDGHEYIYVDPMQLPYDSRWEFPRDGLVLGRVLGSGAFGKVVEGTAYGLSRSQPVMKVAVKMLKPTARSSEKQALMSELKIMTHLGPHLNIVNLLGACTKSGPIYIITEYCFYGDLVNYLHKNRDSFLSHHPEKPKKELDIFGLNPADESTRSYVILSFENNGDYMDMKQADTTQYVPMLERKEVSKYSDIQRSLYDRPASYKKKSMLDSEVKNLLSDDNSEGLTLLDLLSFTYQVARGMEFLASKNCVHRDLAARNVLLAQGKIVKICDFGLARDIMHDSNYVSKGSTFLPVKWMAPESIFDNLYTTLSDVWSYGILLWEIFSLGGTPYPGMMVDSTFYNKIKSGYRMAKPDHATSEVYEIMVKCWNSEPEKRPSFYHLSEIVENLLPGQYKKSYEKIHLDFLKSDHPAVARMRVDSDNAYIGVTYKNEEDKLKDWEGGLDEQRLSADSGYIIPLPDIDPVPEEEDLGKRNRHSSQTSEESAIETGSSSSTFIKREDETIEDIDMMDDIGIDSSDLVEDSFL
T6 sequence (P22607 23-806): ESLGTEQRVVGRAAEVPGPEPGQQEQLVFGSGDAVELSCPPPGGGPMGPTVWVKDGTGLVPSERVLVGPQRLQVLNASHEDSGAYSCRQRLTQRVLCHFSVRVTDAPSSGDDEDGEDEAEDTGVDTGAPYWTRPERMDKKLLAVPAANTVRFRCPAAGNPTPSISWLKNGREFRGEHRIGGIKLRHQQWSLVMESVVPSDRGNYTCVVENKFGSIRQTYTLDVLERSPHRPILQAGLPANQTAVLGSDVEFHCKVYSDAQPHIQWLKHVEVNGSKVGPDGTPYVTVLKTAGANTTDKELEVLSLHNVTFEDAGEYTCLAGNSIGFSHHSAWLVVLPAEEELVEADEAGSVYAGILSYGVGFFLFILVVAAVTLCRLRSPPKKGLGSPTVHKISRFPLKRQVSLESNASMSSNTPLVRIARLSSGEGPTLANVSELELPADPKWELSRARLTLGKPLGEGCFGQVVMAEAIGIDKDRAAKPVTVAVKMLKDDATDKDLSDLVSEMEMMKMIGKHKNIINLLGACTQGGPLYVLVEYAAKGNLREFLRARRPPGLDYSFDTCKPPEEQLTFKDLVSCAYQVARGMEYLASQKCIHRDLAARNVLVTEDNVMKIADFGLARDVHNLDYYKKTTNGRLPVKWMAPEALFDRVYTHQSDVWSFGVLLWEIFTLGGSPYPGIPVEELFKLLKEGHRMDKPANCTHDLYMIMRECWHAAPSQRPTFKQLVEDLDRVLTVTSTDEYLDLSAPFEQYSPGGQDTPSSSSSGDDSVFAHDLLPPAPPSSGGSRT
T7 sequence (P00533 25-1210 L858R): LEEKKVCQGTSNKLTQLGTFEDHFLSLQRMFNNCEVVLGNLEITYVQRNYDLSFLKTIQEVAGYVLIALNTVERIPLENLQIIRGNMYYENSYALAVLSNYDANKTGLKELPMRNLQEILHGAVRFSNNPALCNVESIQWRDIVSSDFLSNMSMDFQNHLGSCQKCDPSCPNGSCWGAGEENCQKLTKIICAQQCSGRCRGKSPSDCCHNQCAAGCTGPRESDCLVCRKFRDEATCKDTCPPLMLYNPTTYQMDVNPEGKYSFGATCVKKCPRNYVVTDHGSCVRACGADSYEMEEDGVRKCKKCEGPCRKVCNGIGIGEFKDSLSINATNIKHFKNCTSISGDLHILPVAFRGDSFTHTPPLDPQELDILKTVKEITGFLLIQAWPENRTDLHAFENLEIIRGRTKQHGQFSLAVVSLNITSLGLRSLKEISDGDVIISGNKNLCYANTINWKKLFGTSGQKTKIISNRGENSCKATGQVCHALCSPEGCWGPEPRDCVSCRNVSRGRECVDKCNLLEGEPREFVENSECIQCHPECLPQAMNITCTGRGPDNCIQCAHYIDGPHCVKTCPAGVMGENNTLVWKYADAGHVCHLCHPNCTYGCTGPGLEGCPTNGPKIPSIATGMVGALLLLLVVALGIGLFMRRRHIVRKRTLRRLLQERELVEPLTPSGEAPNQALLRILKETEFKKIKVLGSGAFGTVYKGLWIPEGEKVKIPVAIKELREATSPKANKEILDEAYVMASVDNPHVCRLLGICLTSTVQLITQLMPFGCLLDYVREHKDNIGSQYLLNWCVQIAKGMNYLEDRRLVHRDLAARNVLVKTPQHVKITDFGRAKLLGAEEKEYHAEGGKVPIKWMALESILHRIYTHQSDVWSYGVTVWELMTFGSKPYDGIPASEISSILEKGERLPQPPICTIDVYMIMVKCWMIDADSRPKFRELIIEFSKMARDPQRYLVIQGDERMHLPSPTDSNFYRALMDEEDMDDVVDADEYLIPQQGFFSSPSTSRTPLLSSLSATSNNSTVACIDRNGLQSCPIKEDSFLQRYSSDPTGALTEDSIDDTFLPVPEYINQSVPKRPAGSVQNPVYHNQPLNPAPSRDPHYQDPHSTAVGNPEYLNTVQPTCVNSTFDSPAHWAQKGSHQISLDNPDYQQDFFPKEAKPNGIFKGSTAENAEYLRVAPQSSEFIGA
T3 sequence (P35916 25-1363): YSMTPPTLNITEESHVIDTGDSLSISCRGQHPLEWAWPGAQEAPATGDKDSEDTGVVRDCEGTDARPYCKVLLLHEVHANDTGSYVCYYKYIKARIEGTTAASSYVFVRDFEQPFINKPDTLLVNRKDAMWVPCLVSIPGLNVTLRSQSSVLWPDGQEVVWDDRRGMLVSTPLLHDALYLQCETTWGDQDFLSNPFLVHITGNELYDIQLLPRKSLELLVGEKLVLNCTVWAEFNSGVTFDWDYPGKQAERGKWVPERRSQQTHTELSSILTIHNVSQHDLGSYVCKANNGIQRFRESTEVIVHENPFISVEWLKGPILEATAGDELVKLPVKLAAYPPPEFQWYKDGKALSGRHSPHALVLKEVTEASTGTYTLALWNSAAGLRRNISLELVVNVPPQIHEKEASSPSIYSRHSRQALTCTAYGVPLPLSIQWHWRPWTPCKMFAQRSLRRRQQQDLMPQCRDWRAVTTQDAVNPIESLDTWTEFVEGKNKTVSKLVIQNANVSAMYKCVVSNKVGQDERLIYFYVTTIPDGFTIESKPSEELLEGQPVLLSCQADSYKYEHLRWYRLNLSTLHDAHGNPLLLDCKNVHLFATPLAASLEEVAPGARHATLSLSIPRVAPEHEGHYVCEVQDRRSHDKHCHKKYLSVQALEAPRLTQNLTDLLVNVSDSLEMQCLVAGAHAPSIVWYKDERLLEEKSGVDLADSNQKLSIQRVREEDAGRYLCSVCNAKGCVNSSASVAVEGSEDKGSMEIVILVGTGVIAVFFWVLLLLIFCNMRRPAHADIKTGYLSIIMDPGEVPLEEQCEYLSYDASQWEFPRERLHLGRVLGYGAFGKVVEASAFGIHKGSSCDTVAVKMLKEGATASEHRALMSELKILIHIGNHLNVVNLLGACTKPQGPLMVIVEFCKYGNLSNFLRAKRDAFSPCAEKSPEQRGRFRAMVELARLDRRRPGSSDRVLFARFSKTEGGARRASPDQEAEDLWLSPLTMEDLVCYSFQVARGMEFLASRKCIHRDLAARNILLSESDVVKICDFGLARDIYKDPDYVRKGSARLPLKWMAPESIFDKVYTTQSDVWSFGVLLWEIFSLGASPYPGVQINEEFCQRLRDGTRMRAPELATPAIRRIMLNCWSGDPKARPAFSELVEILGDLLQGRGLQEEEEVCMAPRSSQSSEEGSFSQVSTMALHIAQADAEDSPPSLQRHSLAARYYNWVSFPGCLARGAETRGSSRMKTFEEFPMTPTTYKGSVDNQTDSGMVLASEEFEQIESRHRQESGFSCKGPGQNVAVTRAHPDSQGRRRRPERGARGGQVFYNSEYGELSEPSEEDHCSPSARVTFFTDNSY

| Structure (SMILES) | IC50 (EGFR) [nM] | IC50 (VEGFR-2) [nM] | inhibition at 1 µM (EGFR) [%] | also measured |
| --- | --- | --- | --- | --- |
| c1cc(Nc2ccc3[nH]ccc3c2)nc(Nc2ccc(N3CCOCC3)cc2)n1 [MKP109] | 240 | 50 | – | – |
| Fc1cc(Nc2nccc(Nc3ccc4[nH]ccc4c3)n2)ccc1N1CCOCC1 [MKP113] | 1630 | 30 | – | – |
| Cc1ccc(Nc2cc(Oc3ccc4[nH]ccc4c3)ncn2)cc1S(N)(=O)=O [MKP123] | 18 | 45 | 100 | inhibition at 1 µM (PDGFRα): 30 ± 3%; inhibition at 1 µM (VEGFR-3): 100%; inhibition at 1 µM (PDGFRβ): 44 ± 3%; inhibition at 1 µM (cKit): 53 ± 9%; inhibition at 1 µM (FGFR3): 21 ± 2%; inhibition at 1 µM (EGFR (L858R)): 99 ± 1%; inhibition at 1 µM (FGFR1): 20 ± 6%; inhibition at 1 µM (VEGFR-1): 99 ± 1%; inhibition at 1 µM (VEGFR-2): 97% |
| Cc1ccc(Nc2nccc(N(C)c3ccc4c(C)n(C)nc4c3)n2)cc1S(N)(=O)=O [Pazopanib, 5-[[4-[(2,3-dimethyl-2H-indazol-6-yl)methylamino]-2-pyrimidinyl]amino]-2-methyl-benzenesulfonamide, reference compound] | – | – | – | EGFR inhibition (in words) (EGFR): did not inhibit EGFR; also recorded: no inhibitory effect against EGFR; Cytotoxicity in HUVECs (HUVECs [1]; 1 μg/mL): No cytotoxicity was observed; Cytotoxicity in HUVECs (HUVECs [1]; 5 and 10 μg/mL): significant endothelial cytotoxicity; Effect on VEGF-induced increase in tube formation (HUVECs [2]): significantly inhibited |
| Cc1cc2cc(N(C)c3ccnc(Nc4ccc(C)c(S(N)(=O)=O)c4)n3)ccc2[nH]1 [MKP103] | – | – | 42 ± 4 | IC50 (HCC827 cells): 1630 nM |
| COc1cc(Nc2nccc(Nc3ccc4[nH]ccc4c3)n2)cc(N2CCOCC2)c1 [MKP116] | 41 | 20 | – | – |
| c1nc(Nc2ccc(N3CCOCC3)cc2)cc(Nc2ccc3[nH]ccc3c2)n1 [MKP118] | 7 | 1200 | – | – |
| Cc1ccc(Nc2nccc(N(C)c3ccc4cc[nH]c4c3)n2)cc1S(N)(=O)=O [MKP105] | – | – | 47 ± 2 | IC50 (HCC827 cells): 1460 nM |
| Cn1ccc2cc(Nc3ccnc(Nc4ccc(N5CCOCC5)cc4)n3)ccc21 [MKP111] | 2240 | 1570 | – | – |
| c1cc(Nc2ccc3[nH]ccc3c2)nc(Nc2ccc(OCCCCN3CCOCC3)cc2)n1 [MKP107] | 178 | 130 | – | – |
| COc1ccc(Nc2cc(Oc3ccc4[nH]ccc4c3)ncn2)cc1N1CCOCC1 [MKP121] | 31 | 30 | 94 ± 2 | inhibition at 1 µM (PDGFRα): 37 ± 1%; inhibition at 1 µM (VEGFR-3): 98%; inhibition at 1 µM (PDGFRβ): 48%; inhibition at 1 µM (cKit): 70 ± 3%; inhibition at 1 µM (FGFR3): 13 ± 4%; inhibition at 1 µM (EGFR (L858R)): 98%; inhibition at 1 µM (FGFR1): 29 ± 5%; inhibition at 1 µM (VEGFR-1): 99 ± 2%; inhibition at 1 µM (VEGFR-2): 96% |
| c1cc(Nc2ccc3[nH]ccc3c2)nc(Nc2ccc(OCCN3CCOCC3)cc2)n1 [MKP106] | 210 | 20 | – | – |
| Fc1cc(Nc2nccc(Nc3ccc4[nH]ccc4c3)n2)cc(N2CCOCC2)c1 [MKP114] | 610 | 41 | – | – |
| c1nc(Nc2ccc(N3CCOCC3)cc2)cc(Oc2ccc3[nH]ccc3c2)n1 [MKP120] | 10 | 32 | – | – |
| Cc1ccc(Nc2nccc(N(C)c3ccc4c(ccn4C)c3)n2)cc1S(N)(=O)=O [MKP104] | – | – | 20 ± 4 | IC50 (HCC827 cells): 2680 nM |
| c1cc(Nc2nccc(Nc3ccc4[nH]ccc4c3)n2)cc(N2CCOCC2)c1 [MKP110] | 180 | 30 | – | – |
| CN(c1ccc2c(ccn2C)c1)c1ccnc(Nc2ccc(N3CCOCC3)cc2)n1 [MKP112] | 10100 | 360 | – | – |
| COc1ccc(Nc2nccc(Nc3ccc4[nH]ccc4c3)n2)cc1N1CCOCC1 [MKP115] | 56 | 10 | – | – |
| Cc1ccc(Nc2nccc(N(C)c3ccc4[nH]cc(C)c4c3)n2)cc1S(N)(=O)=O [MKP102] | 55 | – | 93 ± 2 | IC50 (HCC827 cells): 197 nM |
| Cc1ccc(Nc2nccc(Oc3ccc4[nH]ccc4c3)n2)cc1S(N)(=O)=O [MKP122] | 2040 | 20 | 35 ± 2 | inhibition at 1 µM (PDGFRα): 87 ± 1%; inhibition at 1 µM (VEGFR-3): 100%; inhibition at 1 µM (PDGFRβ): 92%; inhibition at 1 µM (cKit): 99 ± 1%; inhibition at 1 µM (FGFR3): 65 ± 4%; inhibition at 1 µM (EGFR (L858R)): 66%; inhibition at 1 µM (FGFR1): 83%; inhibition at 1 µM (VEGFR-1): 100%; inhibition at 1 µM (VEGFR-2): 96% |
| CN(c1ccc2[nH]ccc2c1)c1cc(Nc2ccc(N3CCOCC3)cc2)ncn1 [MKP119] | 35 | > 3000 | – | – |
| COc1cc(Nc2nccc(N(C)c3ccc4[nH]ccc4c3)n2)cc(N2CCOCC2)c1 [MKP117] | 33 | 17 | – | – |
| CN(c1ccc2[nH]ccc2c1)c1ccnc(Nc2ccc(OCCCCN3CCOCC3)cc2)n1 [MKP108] | 200 | 26 | – | – |

Source: article PMC4581874 (PLoS ONE, 2015)
